“Also recorded” adds a separate entry of the source. Where two headings read alike, the source gives them in different places.
How the values were obtained:
2C8 = test system: 2C8; parameters: method as in ref 5, 11 = [5]; 5. Alunbrig brigatinib [summary of product characteristics] (2020) Takeda Pharmaceutical Company Limited. https://www.alunbrig.com/assets/pi.pdf . Accessed 9 Mar 2021 || [11]; PMID 31287236; doi:10.1002/cpdd.723; 11. Tugnait M Gupta N Hanley MJ Sonnichsen D Kerstein D Dorer DJ Venkatakrishnan K Narasimhan N Effects of strong CYP2C8 or CYP3A inhibition and CYP3A induction on the pharmacokinetics of brigatinib; conditions: in vitro; cited from earlier work
[1] = parameters: method as in PMID 32816246; conditions: eGFR 30 to < 90 mL/min/1.73 m^2; population PK analyses; cited from earlier work
[2] = parameters: method as in earlier work; conditions: cited from earlier work
[3] = test system: ALK-positive non–small cell lung cancer (NSCLC); parameters: method as in PMID 31756496; conditions: cited from earlier work
[4] = test system: cytochrome P450 (CYP) 3A4; parameters: method as in ref 5, 11 = [5]; 5. Alunbrig brigatinib [summary of product characteristics] (2020) Takeda Pharmaceutical Company Limited. https://www.alunbrig.com/assets/pi.pdf . Accessed 9 Mar 2021 || [11]; PMID 31287236; doi:10.1002/cpdd.723; 11. Tugnait M Gupta N Hanley MJ Sonnichsen D Kerstein D Dorer DJ Venkatakrishnan K Narasimhan N Effects of strong CYP2C8 or CYP3A inhibition and CYP3A induction on the pharmacokinetics of brigatinib; conditions: in vitro; cited from earlier work
[5] = Open-label single-dose (brigatinib 90 mg oral, fasting) plasma pharmacokinetic study, severe renal impairment vs matched healthy volunteers; assay type: in vivo, human; parameters: Cmax,u LS Mean (SE): unit not given beside the values; conditions: for half-life / Cmax: human, plasma, 90 mg; for half-life: oral, after a single dose, read-out: mean t1/2 (converted); for Cmax: po, read-out: total brigatinib Cmax, geometric mean (CV%); for Cmax / Tmax, median (range): single oral 90 mg; for V/F,u, geometric mean (geometric % CV): unbound apparent volume of distribution; for Cmax,u, Range / Cmax,u, geometric mean (geometric % CV): unbound
Method: This was an open-label, parallel-group study that enrolled patients with severe renal impairment and matched healthy volunteers with normal renal function. The study consisted of a 28-day screening period and a single nine-day inpatient treatment period (day − 1 to day 8). On the morning of day 1, each participant received a single oral dose of brigatinib 90 mg under fasting conditions.Participants were required to abstain from food for approximately 10 h prior to study drug administration and for approximately four hours postdose, with the exception of the standardized snack. Due to the high prevalence of diabetes in patients with severe renal impairment, the standardized snack (not high fat or high calorie) was given to all participants at 2.5 h postdose. Water was permitted ad libitum except for one hour prior to dosing and for approximately one hour postdose. Participants underwent end-of-study procedures and were discharged from the clinical site on day 8.
Healthy volunteers with normal renal function (eGFR ≥ 90 mL/min/1.73 m^2) were matched to patients with severe renal impairment by age (± 10 years), sex, body mass index (BMI; ±15 % at screening), and if possible, smoking habits. Patients with severe renal impairment were defined as those with an eGFR < 30 mL/min/1.73 m^2. eGFR was calculated using the Modification of Diet in Renal Disease equation (MDRD). Estimated creatinine clearance was based on the Cockcroft-Gault equation.
Blood samples were collected before brigatinib administration (predose) and at 0.5, 1, 1.5, 2, 2.5, 3, 4, 6, 8, 12, 24, 36, 48, 60, 72, 96, 120, 144, and 168 h after brigatinib administration to determine plasma brigatinib concentrations. Urine was collected predose and during intervals (0–8, 8–12, 12–24, 24–48, 48–72, 72–96, 96–120, and 120–168 h) after brigatinib administration to determine urine brigatinib concentrations. Urine samples were subsequently diluted 50:50 (v:v) urine:isopropanol at the clinical site.
Plasma and urine samples were analyzed by Charles River Laboratories, Inc. (Worcester, MA, USA) by LC-MS/MS, as previously reported. Plasma samples were analyzed using a dual-range assay with a lower limit of quantitation of 0.100 ng/mL and an upper limit of 2500 ng/mL [11]. Urine samples were analyzed using a single-range assay with a lower limit of quantitation of 25.0 ng/mL and upper limit of 2500 ng/mL [11].
Individual participant plasma concentration-time profiles were analyzed via noncompartmental analysis methods using Phoenix WinNonlin (version 6.4) to estimate PK parameters. Plasma PK parameters calculated for brigatinib included maximum observed plasma concentration (Cmax); Tmax; area under the plasma concentration-time curve from time zero to the time of the last measurable concentration (AUC0 − last); AUC from time zero to infinity (AUC0−∞); terminal elimination half-life (t1/2); apparent oral clearance (CL/F); and apparent volume of distribution (V/F). The fraction of unbound brigatinib in plasma was determined using the following formula: % free (unbound) = [free brigatinib concentration measured in buffer after RED]/[total concentration measured in plasma] X 100. Unbound brigatinib plasma PK parameters (except unbound CL/F and V/F, which were calculated as total CL/F or total V/F divided by the overall mean fraction unbound) were calculated using the following formula: unbound PK parameter = (parameter based on total concentrations) x (individual participant’s overall mean fraction unbound value). Urinary PK parameters included the amount of brigatinib excreted from time zero to time t (Ae0 − t,), fraction of the dose excreted (%) from time zero to time t (Fe0 − t), and renal clearance (CLR).
Descriptive statistics, including number of observations (n), arithmetic mean, standard deviation (SD), coefficient of variation (CV%), median, minimum, and maximum, were calculated for each time point for brigatinib plasma concentrations in each study group. […]

ALK + NSCLC = test system: ALK + NSCLC; parameters: method as in PMID 32780660; conditions: cited from earlier work
[6] = NSCLC progressed on crizotinib, 180 mg qd with seven-day lead-in at 90 mg, median follow-up 24 months
[7] = patients with baseline brain metastases
[8] = Severe Renal Impairment (n = 8)
[9] = healthy volunteers with normal renal function
[10] = patients with severe renal impairment
[11] = severe renal impairment compared with normal renal function
[12] = brigatinib vs crizotinib, P < 0.0001

V/F,u, Range ([5]; Normal Renal Function (n = 8)): 5898–13,744 L | V/F,u, Range [5, 8]: 3556 to 8914 L | Cmax,u LS Mean (SE) ([5]; Severe renal impairment vs. Normal renal function): 0.130 (0.1330) | half-life [5, 9]: ~42 h | half-life [5, 10]: ~54 h | Cmax [5, 9]: 362 ng/mL | Cmax [5, 10]: 471 ng/mL | Tmax, median (range) ([5]; normal renal function group): 2.0 (1.0–4.0) hours | total brigatinib AUC0 − last, percent higher [5, 11]: more than 100% | total brigatinib AUC0−∞, percent higher [5, 11]: more than 100% | Tmax, median (range) ([5]; severe renal impairment group): 2.5 (1.0–3.0) hours | unbound brigatinib AUC0 − last, percent higher ([5]; severe renal impairment versus normal renal function): 77% | V/F,u, geometric mean (geometric % CV) ([5]; Normal Renal Function (n = 8)): 8327 (30.4) L | V/F,u, geometric mean (geometric % CV) [5, 8]: 5532 (31.4) L | Cmax,u, Range ([5]; Normal Renal Function (n = 8)): 23.9 to 45.3 ng/mL | Cmax,u, geometric mean (geometric % CV) ([5]; Normal Renal Function (n = 8)): 32.29 (25.1) ng/mL | Cmax,u, Range [5, 8]: 25.2 to 55.6 ng/mL | Cmax,u, geometric mean (geometric % CV) [5, 8]: 36.76 (29.0) ng/mL
Structure (SMILES): COc1cc(N2CCC(N3CCN(C)CC3)CC2)ccc1Nc1ncc(Cl)c(Nc2ccccc2P(C)(C)=O)n1 [brigatinib]
contribution of 2C8 to metabolism (2C8): minor contribution | effect of mild or moderate renal impairment on brigatinib exposure / PK [1]: not associated with clinically meaningful effects on brigatinib PK; also recorded: not found to impact brigatinib exposure | administered dose recovered in feces [2]: 65% | administered dose recovered in urine [2]: 25% | unchanged brigatinib as share of total radioactivity in feces [2]: 41% | unchanged brigatinib as share of total radioactivity in urine [2]: 86% | independent review committee-assessed confirmed objective response rate (ORR) [3, 6]: 56% | median progression-free survival (PFS) [3, 6]: 16.7 months | confirmed intracranial ORR [3, 7]: 67% | median intracranial PFS [3, 7]: 18.4 months | contribution of CYP3A4 to metabolism [4]: primarily metabolized | 24-month PFS, blinded independent review committee-assessed (ALK + NSCLC; ALK inhibitor-naive patients): 48% | 24-month PFS, investigator-assessed (ALK + NSCLC; ALK inhibitor-naive patients): 56% | PFS hazard ratio [95 % CI], blinded independent review committee-assessed (ALK + NSCLC; [12]): 0.49 | PFS hazard ratio [95 % CI], investigator-assessed (ALK + NSCLC; [12]): 0.43 [0.31–0.61]

Reference: publication PMC8426299, “Effect of severe renal impairment on the pharmacokinetics of brigatinib” (Investigational New Drugs, 2021)
